In data set [1] the test system is AKI mice. Briefly: overall therapeutic effect in AKI mice. Type of data set: in vivo, mouse. To be noted: TNF-α vs Anc80L65 (A20 overexpression). On the procedure: (§1) Aristolochic acid I sodium salt was dissolved in PBS to 1 mg/mL and injected intraperitoneally at a dose of 10 mg/kg (body weight) every 24 h for 3 days; cisplatin was dissolved in PBS to 1.5 mg/mL for one-time intraperitoneal 25 mg/kg injection; LPS (Sigma, Cat#L2630) was dissolved in PBS to 2.5 mg/mL for one-time intraperitoneal 25 mg/kg injection; deoxyribonuclease I (DNase I, Sigma, Cat#SLBV1446) was dissolved in PBS to 1 mg/mL and injected intraperitoneally at a dose of 10 mg/kg at 4 h before cisplatin or AA I injection and every 24 h after injection. Disulfiram (MedChemExpress, CAS:97-77-8) was diluted in corn oil to 12.5 mg/mL and injected 50 mg/kg intraperitoneally every 24 h after cisplatin or AA I administration. Cu(II) (Sigma, Cat#344419) was dissolved in PBS to 30 µg/mL and administered intraperitoneally 6 h before disulfiram at a dose of 0.15 mg/kg; TNF-α (Peprotech, Cat#315-01 A) was dissolved in PBS to 10 µg/mL and injected at 100 µg/kg once through the caudal vein 24 h before cisplatin injection. Metformin (Sigma, Cat#D150959) was dissolved in PBS to 5 mg/mL and injected intraperitoneally at a dose of 50 mg/kg 24 h before cisplatin or AA I injection and every 24 h after injection. MCC950 (MedChem Express, CAS:256373-96-3) was dissolved in PBS to 5 mg/mL and injected intraperitoneally at a dose of 50 mg/kg 12 h before cisplatin or AA I injection and every 12 h after injection; berberine (APExBIO, Cat#N1368) was dissolved in PBS to 5 mg/mL and 5 mg/kg injected intraperitoneally at 36, 24 and 12 h before cisplatin; A20-derived-peptide was dissolved in ddH2O to 3 mg/mL and injected intraperitoneally at a dose of 15 mg/kg 1 h before cisplatin. To supervise the effects of various treatments on survival time and rate, the mice were observed, and survival curves were generated. To investigate the specific mechanisms, whole blood was retrieved from the orbit, serum was separated through centrifugation on the 4th day, and the mice were then sacrificed by cervical dislocation. Mice were randomly assigned in experiments, while there was no blinding during the animal experiments.

Data set [2] deals with AKI mice. Briefly: survival of AKI mice. Type of data set: in vivo, mouse. To be noted: n = 10 per group. On the procedure:
as §1

The next data set relates to BMDMs. Briefly: pyroptotic induction of BMDMs by ox-DNA or LPS plus ATP (immunoblot of GSDMD). Type of data set: cell-based, mouse. To be noted: BMDMs pretreated with low-dose TNF-α before ox-dsDNA90 or LPS plus ATP; Fig. 6l. On the procedure:
Primary bone marrow-derived macrophages (BMDMs) were isolated from 6- to 8-week-old C57BL/6J male mice. The mice were sacrificed and soaked in 75% alcohol for 1–2 min. The femurs and tibias were removed and immersed in PBS containing 500 U/mL penicillin and […] streptomycin for 3 min. The marrow cavities were repeatedly rinsed with DMEM using a sterile 1 mL syringe. The cell suspension was collected and centrifuged at 300 × g for 10 min, and the supernatant was discarded. The cell pellet was resuspended in 5 mL red cell lysis buffer (Bio Sharp, Cat#BL503A) on ice for 5 min, followed by centrifugation, and the supernatant was removed. The cells were then resuspended in DMEM complete culture medium supplemented with 10% FBS and 30% L929 cell-conditioned medium as an induction factor.[51] Half of the medium was changed every other day for 5–7 days. The suspended cells were removed, and the adherent BMDMs were digested with trypsin and plated on a six-well plate at a density of 1 × 10^6 cells/well. […]
Prepared protein samples were subjected to 6-15% SDS polyacrylamide gels and separated according to the protein concentrations. […] The protein bands were detected with an enhanced chemiluminescence kit (Millipore, Cat#WBKLS0500) using a gel imaging system (Bio-Rad, USA) for visualization and standardization of the amount of protein loaded. α-Tubulin was used as the internal control.
In general terms: In western blotting, separated proteins are transferred to a membrane and probed.

Data set [3] deals with AKI mice. Briefly: tubular injury / renal injury of AKI mice (HE histology). Type of data set: in vivo, mouse. As to the method: (§2) LPS (Sigma, Cat#L2630) was dissolved in PBS to 2.5 mg/mL for one-time intraperitoneal 25 mg/kg injection; deoxyribonuclease I (DNase I, Sigma, Cat#SLBV1446) was dissolved in PBS to 1 mg/mL and injected intraperitoneally at a dose of 10 mg/kg at 4 h before cisplatin or AA I injection and every 24 h after injection. Disulfiram (MedChemExpress, CAS:97-77-8) was diluted in corn oil to 12.5 mg/mL and injected 50 mg/kg intraperitoneally every 24 h after cisplatin or AA I administration. Cu(II) (Sigma, Cat#344419) was dissolved in PBS to 30 µg/mL and administered intraperitoneally 6 h before disulfiram at a dose of 0.15 mg/kg; TNF-α (Peprotech, Cat#315-01 A) was dissolved in PBS to 10 µg/mL and injected at 100 µg/kg once through the caudal vein 24 h before cisplatin injection. […] MCC950 (MedChem Express, CAS:256373-96-3) was dissolved in PBS to 5 mg/mL and injected intraperitoneally at a dose of 50 mg/kg 12 h before cisplatin or AA I injection and every 12 h after injection; berberine (APExBIO, Cat#N1368) was dissolved in PBS to 5 mg/mL and 5 mg/kg injected intraperitoneally at 36, 24 and 12 h before cisplatin; […] To supervise the effects of various treatments on survival time and rate, the mice were observed, and survival curves were generated. To investigate the specific mechanisms, whole blood was retrieved from the orbit, serum was separated through centrifugation on the 4th day, and the mice were then sacrificed by cervical dislocation. Mice were randomly assigned in experiments, while there was no blinding during the animal experiments. Renal function was evaluated based on serum creatinine level and histological features. Serum creatinine was determined in the Clinical Pharmacology Lab, Clinical Trial Center, WCH, SCU. The kidneys were extracted from euthanized mice, immediately fixed with 4% paraformaldehyde, and embedded in paraffin. Furthermore, the samples were cut into 5 µm thick sections. These tissue samples were subjected to hematoxylin-eosin (HE) and […] according to standard protocols with HE reagent (Biosharp, Cat#BL702B, BL703B) and Masson reagent (Servicebio, Cat#G1006-100ML). The pathological changes were detected through optical microscopy, and the tubulointerstitial injury score was determined as previously reported.

In data set [4] the test system is AKI mice. As to the kind of experiment: serum creatinine of AKI mice. It is filed as in vivo, mouse. As to the method:
as §2

Another data set deals with patients. To be noted: first course of cisplatin treatment; cited from earlier work. An excerpt: Acute kidney injury (AKI) is a life-threatening condition characterized by a rapid loss of renal function, leading to high mortality and morbidity.[1],[2] Approximately 13% of patients received the first course of cisplatin treatment developed AKI.[2],[3] Despite various initial triggers, the pathophysiology of AKI often involves common pathogenic denominators, such as cell death, tissue injury, and drastic inflammation.[4] Several types of cell death have been recently described in AKI, and multiple strategies targeting cell death have been reported to help mitigate the progression of AKI.[5] ...

In data set [5] the test system is NEK7. To be noted: low dose; cited from earlier work. An excerpt: Furthermore, we investigated the potential therapeutic medicines targeting to NEK7 and evaluated their effects on alleviating AKI. […] A ...
Data set [6] relates to NEK7. Briefly: NEK7 expression in iBMDMs (immunoblot). To be noted: LPS plus metformin 0, 1, 2 or 5 mM, Fig. 9a. Type of data set: cell-based, mouse. As to the method: For immunoblot analysis of kidney tissue, total protein lysates were prepared from renal tissue, which was ground in liquid nitrogen and then added to lysis buffer in a Total Protein Extraction Kit (Signalway Antibody, Cat#PE001). Samples were centrifuged at 12,000 rpm for 15 min at 4 °C, and the supernatant was collected immediately. For immunoblot analysis of cells, cultured cells after treatment were lysed with lysis buffer, which was premixed with protease and phosphatase inhibitors (Signalway Antibody, Cat#PE001). The samples were centrifuged at 12,000 r/min for 15 min at 4 °C, and the supernatant was collected immediately. Ultimately, both types of protein samples were then mixed with 4× Laemmli loading buffer (Bio-Rad, Cat#1610747) and denatured by boiling at 95 °C for 5 min.
Prepared protein samples were subjected to 6-15% SDS polyacrylamide gels and separated according to the protein concentrations. Then, the protein bands were transferred to polyvinylidene difluoride (PVDF) membranes by a wet transfer apparatus (Bio-Rad, USA). […] The protein bands were detected with an enhanced chemiluminescence kit (Millipore, Cat#WBKLS0500) using a gel imaging system (Bio-Rad, USA) for visualization and standardization of the amount of protein loaded. α-Tubulin was used as the internal control.

Data set [7] deals with NEK7. As to the kind of experiment: NEK7 expression in renal tissue of mice (immunoblot). To be noted: Cis mice, metformin 50 mg/kg i.p., Fig. 9b. It is filed as in vivo, mouse.
Protocol: For immunoblot analysis of kidney tissue, total protein lysates were prepared from renal tissue, which was ground in liquid nitrogen and then added to lysis buffer in a Total Protein Extraction Kit (Signalway Antibody, Cat#PE001). Samples were centrifuged at 12,000 rpm for 15 min at 4 °C, and the supernatant was collected immediately. […] Ultimately, both types of protein samples were then mixed with 4× Laemmli loading buffer (Bio-Rad, Cat#1610747) and denatured by boiling at 95 °C for 5 min.
Prepared protein samples were subjected to 6-15% SDS polyacrylamide gels and separated according to the protein concentrations. Then, the protein bands were transferred to polyvinylidene difluoride (PVDF) membranes by a wet transfer apparatus (Bio-Rad, USA). […] The protein bands were detected with an enhanced chemiluminescence kit (Millipore, Cat#WBKLS0500) using a gel imaging system (Bio-Rad, USA) for visualization and standardization of the amount of protein loaded. α-Tubulin was used as the internal control. […]
Data set [8] has as its system AKI mice. As to the kind of experiment: renal fibrosis of AKI mice (Masson staining). It is filed as in vivo, mouse. To be noted: Cis mice; metformin 50 mg/kg i.p. 24 h before and every 24 h after; n = 5. As to the method:
LPS (Sigma, Cat#L2630) was dissolved in PBS to 2.5 mg/mL for one-time intraperitoneal 25 mg/kg injection; deoxyribonuclease I (DNase I, Sigma, Cat#SLBV1446) was dissolved in PBS to 1 mg/mL and injected intraperitoneally at a dose of 10 mg/kg at 4 h before cisplatin or AA I injection and every 24 h after injection. Disulfiram (MedChemExpress, CAS:97-77-8) was diluted in corn oil to 12.5 mg/mL and injected 50 mg/kg intraperitoneally every 24 h after cisplatin or AA I administration. Cu(II) (Sigma, Cat#344419) was dissolved in PBS to 30 µg/mL and administered intraperitoneally 6 h before disulfiram at a dose of 0.15 mg/kg; TNF-α (Peprotech, Cat#315-01 A) was dissolved in PBS to 10 µg/mL and injected at 100 µg/kg once through the caudal vein 24 h before cisplatin injection. […] Renal function was evaluated based on serum creatinine level and histological features. Serum creatinine was determined in the Clinical Pharmacology Lab, Clinical Trial Center, WCH, SCU. […] The pathological changes were detected through optical microscopy, and the tubulointerstitial injury score was determined as previously reported.

The mark [9] stands for this setting: Cis or AA I mice, TNF-α 100 µg/kg pre-injection.
[10] abbreviates: Cis mice, metformin 50 mg/kg i.p. 24 h before and every 24 h after.

With TNF-α, in the data set on AKI mice [1], the “alleviation of AKI compared with Anc80L65” value is given as “more efficient in alleviating AKI”. Also, the survival entry in the data set with AKI mice [2] (Cis or AA I mice, TNF-α 100 µg/kg once through the caudal vein 24 h before) is reported as “extended overall survival benefit”. Further, in the data set with BMDMs, the “resistance of BMDMs to pyroptotic induction” value is on record as “more resistant to pyroptotic induction”. For the same compound, in the data set with AKI mice [3] (setting [9]), the “tubular injury (in words)” value is “alleviated serum creatinine and tubular injury”. In the data set with AKI mice [4] (setting [9]), the “serum creatinine (in words)” value is listed as “alleviated serum creatinine”.

Turning to `N.N.[Cl][Pt][Cl]` [cisplatin], in the data set with patients, the “patients developing AKI after first course of treatment” value is “Approximately 13%”.

As to `CN(C)C(=N)N=C(N)N` [metformin, Metformin], in the data set on NEK7 [5], the “NEK7 expression (literature)” value was “limit the expression of NEK7 to alleviate inflammation”. The survival result with AKI mice [2] (setting [10]) was “longer survival time and better survival rate”. The “NEK7 expression in vitro” value in the data set on NEK7 [6] was “downregulates NEK7”. Besides, the “tubular injury (in words)” value with AKI mice [3] (setting [10]) is reported as “markedly ameliorated cisplatin-induced serum creatines, tubular injury”. Besides, the “NEK7 expression in vivo” value in the data set with NEK7 [7] is recorded as “downregulates NEK7”. The “serum creatinine (in words)” value with AKI mice [4] (setting [10]) was “markedly ameliorated cisplatin-induced serum creatines”. Also, the renal fibrosis entry with AKI mice [8] is “markedly ameliorated cisplatin-induced serum creatines, tubular injury, renal fibrosis”.

Values taken from article PMC12032302, “A20 attenuates oxidized self-DNA-mediated inflammation in acute kidney injury” (Signal Transduction and Targeted Therapy, 2025).
